Reference: patent US20080287430A1, “Furan Compounds Useful As Ep1 Receptor Antagonists” (priority 2005, published 2008)
Structures can show the parent of a compound that is named as a salt.

How the values were obtained:
human EP1 receptor [1] = molecular target: T1, human EP1 receptor (Homo sapiens, UniProt P34995); test: human EP1 calcium mobilisation assay; format: cell-based; conditions: human EP1, PGE2-induced calcium mobilisation in CHO-K1 cells; free bases or sodium salts; averages of a number of experiments; read-out: functional pKi value (converted)
T1 construct: expressed in transfected cells; host or cells: CHO-K1
T1 sequence (P34995 1-402): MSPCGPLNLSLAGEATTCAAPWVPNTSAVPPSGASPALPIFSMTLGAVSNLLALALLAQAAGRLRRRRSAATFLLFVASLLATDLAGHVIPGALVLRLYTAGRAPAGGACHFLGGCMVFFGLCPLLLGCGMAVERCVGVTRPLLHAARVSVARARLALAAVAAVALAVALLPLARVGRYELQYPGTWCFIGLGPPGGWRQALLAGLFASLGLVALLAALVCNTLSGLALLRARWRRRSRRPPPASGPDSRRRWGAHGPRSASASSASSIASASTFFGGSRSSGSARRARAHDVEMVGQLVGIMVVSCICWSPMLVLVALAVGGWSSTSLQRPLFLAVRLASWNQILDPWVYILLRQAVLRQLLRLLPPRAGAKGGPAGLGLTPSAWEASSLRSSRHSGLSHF
In short: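 CHO-K1 cells stably expressing human EP1, loaded with Fluo-4 after 24 h at 37° C; compounds added before PGE2 challenge. Inhibition of PGE2-induced [Ca2+]i rise read by FLIPR fluorescence; pIC50 from curve fitting of half-maximal inhibition.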

human EP1 receptor [2] = molecular target: T1, human EP1 receptor; test: Binding assay for the human prostanoid EP1 receptor (competition with [3H]-PGE2); conditions: binding to human EP1 receptor, [3H]-PGE2 competition, CHO-K1 cell membranes; averages of a number of experiments; read-out: pIC50 value (converted)
Experimental: Competition assay using [^3H]-PGE2.
Compound potencies are determined using a radioligand binding assay. In this assay compound potencies are determined from their ability to compete with tritiated prostaglandin E2 ([^3H]-PGE2) for binding to the human EP1 receptor.
This assay utilises Chinese hamster ovary-K1 (CHO-K1) cells into which a stable vector containing the EP1 cDNA has previously been transfected. Cells are cultured in suitable flasks containing culture medium such as DMEM:F-12 supplemented with 10% v/v foetal calf serum, 2 mM L-glutamine, 0.25 mg/ml geneticin, 10 μg/ml puromycin and 10 μM indomethacin.
Cells are detached from the culture flasks by incubation in calcium and magnesium free phosphate buffered saline containing 1 mM disodium ethylenediaminetetraacetic acid (Na2EDTA) and 10 μM indomethacin for 5 min. The cells are isolated by centrifugation at 250×g for 5 mins and suspended in an ice cold buffer such as 50 mM Tris, 1 mM Na2EDTA, 140 mM NaCl, 10 μM indomethacin (pH 7.4). The cells are homogenised using a Polytron tissue disrupter (2×10 s burst at full setting), centrifuged at 48,000×g for 20 mins and the pellet containing the membrane fraction is washed (optional) three times by suspension and centrifugation at 48,000×g for 20 mins. The final membrane pellet is suspended in an assay buffer such as 10 mM 2-[N-morpholino]ethanesulphonic acid, 1 mM Na2EDTA, 10 mM MgCl2 (pH 6). Aliquots are frozen at −80° C. until required.
For the binding assay the cell membranes, competing compounds and [^3H]-PGE2 (3 nM final assay concentration) are incubated in a final volume of 100 μl for 30 min at 30° C. All reagents are prepared in assay buffer. Reactions are terminated by rapid vacuum filtration over GF/B filters using a Brandell cell harvester. The filters are washed with ice cold assay buffer, dried and the radioactivity retained on the filters is measured by liquid scintillation counting in Packard TopCount scintillation counter.
The data are analysed using non linear curve fitting techniques to determine the concentration of compound producing 50% inhibition of specific binding (IC50).

Row | Ki (human EP1 receptor [1]) [nM] | IC50 (human EP1 receptor [2]) [nM] | Structure (SMILES)
1 | ≤ 10 | ≤ 10 | O=C(O)c1ccc(Cc2cc(Cl)ccc2OCc2ccc(F)cc2)o1 [Example 21, Sodium 5-[(5-chloro-2-{[(4-fluorophenyl)methyl]oxy}phenyl)methyl]-2-furancarboxylate]
2 | < 1000 | ≤ 10 | CC(C)COc1ccc(Cl)cc1Cc1ccc(-c2nc3ccc(CN(C)C)cc3[nH]2)o1 [Example 142, ({2-[5-({5-Chloro-2-[(2-methylpropyl)oxy]-phenyl}methyl)-2-furanyl]-1H-benzimidazol-5-yl}methyl)dimethyl-amine dihydrochloride]
3 | ≤ 10 | ≤ 10 | O=C(O)c1ccc(Cc2cc(Cl)ccc2OCc2ccccc2)o1 [Example 18, Sodium 5-({5-chloro-2-[(phenylmethyl)oxy]phenyl}methyl)-2-furancarboxylate]
4 | < 1000 | ≤ 10 | O=C(O)c1ccc(Cc2cc(Cl)ccc2OCC2CCCCC2)o1 [Example 6, Sodium 5-({5-chloro-2-[(cyclohexylmethyl)oxy]phenyl}methyl)-2-furancarboxylate]
5 | < 1000 | ≤ 10 | CC(C)COc1ccc(Cl)cc1Cc1ccc(-c2nc3ccc(CCN4CCN(C)CC4)cc3[nH]2)o1 [Example 162, 2-[5-({5-Chloro-2-[(2-methylpropyl)oxy]-phenyl}methyl)-2-furanyl]-5-[2-(4-methyl-1-piperazinyl)ethyl]-1H-benzimidazoletrihydrochloride]
6 | < 1000 | ≤ 10 | O=C(Nc1c(F)cccc1F)c1ccc(Cc2cc(Cl)ccc2OCc2ccc(Cl)cc2F)o1 [Example 84, 5-[(5-Chloro-2-{[(4-chloro-2-fluorophenyl)methyl]oxy}-phenyl)methyl]-N-(2,6-difluorophenyl)-2-furancarboxamide]
7 | < 1000 | ≤ 10 | CC(C)COc1ccc(Cl)cc1Cc1ccc(-c2nc3ccc(CN4CCCCC4)cc3[nH]2)o1 [Example 147, 2-[5-({5-Chloro-2-[(2-methylpropyl)oxy]-phenyl}methyl)-2-furanyl]-5-(1-piperidinylmethyl)-1H-benzimidazoledihydrochloride]
8 | ≤ 10 | ≤ 10 | CC(C)COc1ccc(Cl)cc1Cc1ccc(-c2nc3ccccc3[nH]2)o1 [Example 98, 2-[5-({5-Chloro-2-[(2-methylpropyl)oxy]phenyl}methyl)-2-furanyl]-1H-benzimidazole]
9 | < 1000 | ≤ 10 | CC(C)COc1ccc(Cl)cc1Cc1ccc(-c2nc3ccc(N4CCOCC4)cc3[nH]2)o1 [Example 112, 2-[5-({5-Chloro-2-[(2-methylpropyl)oxy]-phenyl}methyl)-2-furanyl]-5-(4-morpholinyl)-1H-benzimidazoledihydrochloride]
10 | ≤ 10 | ≤ 10 | CC(C)COc1ccc(Cl)cc1Cc1ccc(-c2nc3nccnc3[nH]2)o1 [Example 106, 2-[5-({5-Chloro-2-[(2-methylpropyl)oxy]-phenyl}methyl)-2-furanyl]-1H-imidazo[4,5-b]pyrazine]
11 | < 1000 | ≤ 10 | CC(C)COc1ccc(Cl)cc1Cc1ccc(C(=O)O)o1 [Example 10, Sodium 5-({5-chloro-2-[(2-methylpropyl)oxy]phenyl}methyl)-2-furancarboxylate]

More lines, now with the values behind:

Row | Structure (SMILES) | Ki (human EP1 receptor [1]) [nM] | IC50 (human EP1 receptor [2]) [nM]
12 | O=C(O)c1ccc(Cc2cc(Cl)ccc2OCc2ccc(F)cc2Cl)o1 [Example 22, Sodium 5-[(5-chloro-2-{[(2-chloro-4-fluorophenyl)methyl]oxy}phenyl)methyl]-2-furancarboxylate] | ≤ 10 | ≤ 10
13 | CC(C)COc1ccc(Cl)cc1Cc1ccc(-c2nc3ccc(CO)cc3[nH]2)o1 [Example 132] | < 1000 | ≤ 10
14 | O=C(O)c1ccc(Cc2cc(Cl)ccc2OCc2c(F)cc(F)cc2F)o1 [Example 20, Sodium 5-[(5-chloro-2-{[(2,4,6-trifluorophenyl)methyl]oxy}phenyl)methyl]-2-furancarboxylate] | < 1000 | ≤ 10
15 | CC(C)COc1ccc(Cl)cc1Cc1ccc(-c2nc3ccc(CN4CCN(C)CC4)cc3[nH]2)o1 [Example 145, 2-[5-({5-Chloro-2-[(2-methylpropyl)oxy]-phenyl}methyl)-2-furanyl]-5-[(4-methyl-1-piperazinyl)methyl]-1H-benzimidazoletrihydrochloride] | < 1000 | ≤ 10
16 | CC(C)COc1ccc(Cl)cc1Cc1ccc(-c2nc3ccc(CN(C)CCC#N)cc3[nH]2)o1 [Example 149, 3-[({2-[5-({5-Chloro-2-[(2-methylpropyl)oxy]-phenyl}methyl)-2-furanyl]-1H-benzimidazol-5-yl}methyl)(methyl)-amino]propanenitriledihydrochloride] | < 1000 | ≤ 10
17 | CCC(CC)COc1ccc(Cl)cc1Cc1ccc(C(=O)O)o1 [Example 7, Sodium 5-({5-chloro-2-[(2-ethylbutyl)oxy]phenyl}methyl)-2-furancarboxylate] | ≤ 10 | ≤ 10
18 | O=C(O)c1ccc(Cc2cc(Cl)ccc2OCC2CC2)o1 [Example 3, Sodium 5-({5-chloro-2-[(cyclopropylmethyl)oxy]phenyl}methyl)-2-furancarboxylate] | < 1000 | ≤ 10
19 | OCc1ccc2nc(-c3ccc(Cc4cc(Cl)ccc4OCc4ccccc4)o3)[nH]c2c1 [Example 133, {2-[5-({5-Chloro-2-[(phenylmethyl)oxy]phenyl}methyl)-2-furanyl]-1H-benzimidazol-5-yl}methanol] | < 1000 | ≤ 10
20 | O=C(Nc1c(F)cccc1F)c1ccc(Cc2cc(Cl)ccc2OCc2ccc(F)cc2F)o1 [Example 36, 5-[(5-Chloro-2-{[(2,4-difluorophenyl)methyl]oxy}phenyl)methyl]-N-(2,6-difluorophenyl)-2-furancarboxamide] | ≤ 10 | ≤ 10
21 | CC(C)COc1ccc(Cl)cc1Cc1ccc(-c2nc3c(F)cccc3[nH]2)o1 [Example 108, 2-[5-({5-Chloro-2-[(2-methylpropyl)oxy]-phenyl}methyl)-2-furanyl]-4-fluoro-1H-benzimidazole] | < 1000 | ≤ 10
22 | CC(C)COc1ccc(Cl)cc1Cc1ccc(C(=O)NCc2ccccc2)o1 [Example 57, 5-({5-Chloro-2-[(2-methylpropyl)oxy]-phenyl}methyl)-N-(phenylmethyl)-2-furancarboxamide] | ≤ 10 | ≤ 10
23 | CC(C)COc1ccc(Cl)cc1Cc1ccc(-c2nc3ccc(N(C)C)cc3[nH]2)o1 [Example 113, 2-[5-({5-Chloro-2-[(2-methylpropyl)oxy]-phenyl}methyl)-2-furanyl]-N,N-dimethyl-1H-benzimidazol-5-aminedihydrochloride] | < 1000 | ≤ 10
24 | CC(C)COc1ccc(Cl)cc1Cc1ccc(-c2nc3cc(N4CCN(C)CC4)ccc3[nH]2)o1 [Example 111, 2-[5-({5-Chloro-2-[(2-methylpropyl)oxy]-phenyl}methyl)-2-furanyl]-5-(4-methyl-1-piperazinyl)-1H-benzimidazoletrihydrochloride] | < 1000 | ≤ 10
25 | O=C(O)c1ccc(Cc2cc(Cl)ccc2OCc2ccc(Cl)cc2F)o1 [Example 23, Sodium 5-[(5-chloro-2-{[(4-chloro-2-fluorophenyl)methyl]oxy}phenyl)methyl]-2-furancarboxylate] | ≤ 10 | ≤ 10
26 | CC(C)COc1ccc(Cl)cc1Cc1ccc(-c2nc3cc4cnn(C)c4cc3[nH]2)o1 [Example 107, 6-[5-({5-Chloro-2-[(2-methylpropyl)oxy]-phenyl}methyl)-2-furanyl]-1-methyl-1,5-dihydroimidazo[4,5-f]indazole] | < 1000 | ≤ 10
27 | O=C(O)c1ccc(Cc2cc(Cl)ccc2OCc2cc(F)c(F)cc2F)o1 [Example 25, Sodium 5-[(5-chloro-2-{[(2,4,5-trifluorophenyl)methyl]oxy}phenyl)methyl]-2-furancarboxylate] | ≤ 10 | ≤ 10
